In ChEMBL document CHEMBL1201862, “PubChem BioAssay data set” (2004):
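Grown in 96-well plates, cells were treated for 48 hours with each compound at five concentrations. Insufficient inhibition: endpoint recorded as highest concentration tested. GI50: concentration for 50% inhibition of growth.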 The source made the active and inactive calls. No stated cut-off is given here; in the data, active = GI50 up to about 1.1 µM and inactive = higher.

Key:
Assay in all cases: NCI anticancer screen, dose series, 48 h
HCC 2998 = test system: HCC 2998
RXF 393 = test system: RXF 393
Hs-578T = test system: Hs-578T
UACC-257 = test system: UACC-257
MCF7 = test system: MCF7
NCI-H522 = test system: NCI-H522
BT-549 = test system: BT-549
DU-145 = test system: DU-145
SF-268 = test system: SF-268
SN12C = test system: SN12C
RPMI-8226 = test system: RPMI-8226
CCRF-CEM = test system: CCRF-CEM
TK-10 = test system: TK-10
HOP-92 = test system: HOP-92
HL-60 = test system: HL-60
OVCAR-5 = test system: OVCAR-5
NCI-H460 = test system: NCI-H460
Malme-3M = test system: Malme-3M

Row | Structure (SMILES) | GI50 (HCC 2998) | GI50 (RXF 393) | GI50 (Hs-578T) | GI50 (UACC-257) | GI50 (MCF7) | GI50 (NCI-H522) | GI50 (BT-549) | GI50 (DU-145) | GI50 (SF-268) | GI50 (SN12C) | GI50 (RPMI-8226) | GI50 (CCRF-CEM) | GI50 (TK-10) | GI50 (HOP-92) | GI50 (HL-60) | GI50 (OVCAR-5) | GI50 (NCI-H460) | GI50 (Malme-3M)
1 | O=P1(c2ccccc2)c2ccccc2CCc2ccccc21 | > 100 µM (inactive) | 44.4 µM (inactive) | > 100 µM (inactive) | > 100 µM (inactive) | > 100 µM (inactive) | 37.1 µM (inactive) | 99.5 µM (inactive) | 72.8 µM (inactive) | 95.9 µM (inactive) | 81.1 µM (inactive) | 50.6 µM (inactive) | 47.9 µM (inactive) | > 100 µM (inactive) | 35.6 µM (inactive) | 16.6 µM (inactive) |  |  | 
2 | COc1ccc(NC(=S)c2ccoc2C)cc1CC(=O)OC(C)C | 45.5 µM (inactive) |  | 45.2 µM (inactive) | 33.4 µM (inactive) | 22 µM (inactive) | 36.3 µM (inactive) | > 10 µM (inactive) | 48.3 µM (inactive) | 43.4 µM (inactive) | 66.1 µM (inactive) | 50.8 µM (inactive) | 43.9 µM (inactive) | 33.3 µM (inactive) | 20.6 µM (inactive) | 22.1 µM (inactive) | > 100 µM (inactive) | 31.8 µM (inactive) | 
3 | CCOC(=O)/C=C(/C(=O)OCC)n1cc(C)c(=O)n(Cc2cnnn2CCCCOC(C)=O)c1=O | > 10 µM (inactive) | 33.3 µM (inactive) | 45.5 µM (inactive) | 26.3 µM (inactive) | 13.6 µM (inactive) | 3.21 µM (inactive) | 10.5 µM (inactive) | > 100 µM (inactive) | 36.6 µM (inactive) | 45.2 µM (inactive) | 17.1 µM (inactive) | 1.13 µM (inactive) | 12.6 µM (inactive) | 0.0906 µM (active) |  | 19.6 µM (inactive) | 23.3 µM (inactive) | 
4 | O=C(O)CSc1cc(-c2ccccc2)nc2ccccc12 |  | 27.4 µM (inactive) | 19.4 µM (inactive) | 71.9 µM (inactive) |  | 22.6 µM (inactive) | 32 µM (inactive) | 34 µM (inactive) | 35 µM (inactive) | 36.6 µM (inactive) |  |  | 64.1 µM (inactive) | 72.3 µM (inactive) | 22.2 µM (inactive) | > 100 µM (inactive) | 38.7 µM (inactive) | 22.8 µM (inactive)
5 | c1ccc(-c2cc(-c3ccccc3)nc(-c3ccncc3)c2)cc1 | > 100 µM (inactive) | 44.6 µM (inactive) | > 100 µM (inactive) | 99.8 µM (inactive) | > 100 µM (inactive) | > 100 µM (inactive) | > 100 µM (inactive) | > 100 µM (inactive) | > 100 µM (inactive) | > 100 µM (inactive) | > 100 µM (inactive) | > 100 µM (inactive) | 40.4 µM (inactive) |  | > 100 µM (inactive) | > 100 µM (inactive) |  | > 100 µM (inactive)
6 | Cc1c2c(OCC3CCCCO3)nn(C)c(=O)c2c(C)n1-c1ccccc1 (configuration not stated) | 15.3 µM (inactive) | 16 µM (inactive) | 21.2 µM (inactive) | 18.6 µM (inactive) | 14.9 µM (inactive) | 17 µM (inactive) | 19.7 µM (inactive) | 17.7 µM (inactive) | 16.1 µM (inactive) | 19.4 µM (inactive) | 31.3 µM (inactive) |  | 20.6 µM (inactive) | 18 µM (inactive) |  | 17.4 µM (inactive) | 14.7 µM (inactive) | 18.7 µM (inactive)
7 | N#Cc1nnn(C2CCCCC2)c1O | > 100 µM (inactive) | > 100 µM (inactive) | > 100 µM (inactive) | > 100 µM (inactive) | > 100 µM (inactive) | > 100 µM (inactive) | > 100 µM (inactive) | > 100 µM (inactive) | > 100 µM (inactive) | > 100 µM (inactive) | 10 µM (inactive) | > 100 µM (inactive) | > 100 µM (inactive) |  | > 100 µM (inactive) | > 100 µM (inactive) | > 100 µM (inactive) | > 100 µM (inactive)
8 | C[n+]1c2ccccc2c(C(=O)Nc2ccc(S(=O)(=O)Nc3ccnn3-c3ccccc3)cc2)c2ccccc21 | > 100 µM (inactive) |  | > 100 µM (inactive) | > 100 µM (inactive) | > 100 µM (inactive) |  | > 100 µM (inactive) | > 100 µM (inactive) | > 100 µM (inactive) | > 100 µM (inactive) | > 100 µM (inactive) |  | > 100 µM (inactive) |  |  | > 100 µM (inactive) | > 100 µM (inactive) | > 100 µM (inactive)
9 | CS(=O)(=O)c1nc(-c2cc3c(c(S(C)(=O)=O)n2)CCC3)cc2c1CCCC2 | > 100 µM (inactive) | 15.6 µM (inactive) | 2.55 µM (inactive) | > 100 µM (inactive) |  | 17 µM (inactive) | 32.1 µM (inactive) | > 100 µM (inactive) | 7.76 µM (inactive) | > 100 µM (inactive) | > 100 µM (inactive) | > 100 µM (inactive) | 64.9 µM (inactive) |  | > 100 µM (inactive) | > 100 µM (inactive) |  | 
